In patent US11370769B2, “TRPC5 inhibitors and methods of using same” (BOARD OF REGENTS OF THE UNIVERSITY OF NEBRASKA, priority 2017, dated 2022):

Columns and labels:
TRPC5 = target: T1, TRPC5 (Homo sapiens, UniProt Q9UL62); assay: HEK293 whole-cell patch clamp recording, TRPC5 inhibition assay; type: cell-based; conditions: for IC50: dose response, whole cell patch clamp, HEK cells expressing TRPC5, Rilu (3 μM)
T1 construct: expressed in transfected cells; host or cells: HEK293
T1 sequence (Q9UL62 1-973): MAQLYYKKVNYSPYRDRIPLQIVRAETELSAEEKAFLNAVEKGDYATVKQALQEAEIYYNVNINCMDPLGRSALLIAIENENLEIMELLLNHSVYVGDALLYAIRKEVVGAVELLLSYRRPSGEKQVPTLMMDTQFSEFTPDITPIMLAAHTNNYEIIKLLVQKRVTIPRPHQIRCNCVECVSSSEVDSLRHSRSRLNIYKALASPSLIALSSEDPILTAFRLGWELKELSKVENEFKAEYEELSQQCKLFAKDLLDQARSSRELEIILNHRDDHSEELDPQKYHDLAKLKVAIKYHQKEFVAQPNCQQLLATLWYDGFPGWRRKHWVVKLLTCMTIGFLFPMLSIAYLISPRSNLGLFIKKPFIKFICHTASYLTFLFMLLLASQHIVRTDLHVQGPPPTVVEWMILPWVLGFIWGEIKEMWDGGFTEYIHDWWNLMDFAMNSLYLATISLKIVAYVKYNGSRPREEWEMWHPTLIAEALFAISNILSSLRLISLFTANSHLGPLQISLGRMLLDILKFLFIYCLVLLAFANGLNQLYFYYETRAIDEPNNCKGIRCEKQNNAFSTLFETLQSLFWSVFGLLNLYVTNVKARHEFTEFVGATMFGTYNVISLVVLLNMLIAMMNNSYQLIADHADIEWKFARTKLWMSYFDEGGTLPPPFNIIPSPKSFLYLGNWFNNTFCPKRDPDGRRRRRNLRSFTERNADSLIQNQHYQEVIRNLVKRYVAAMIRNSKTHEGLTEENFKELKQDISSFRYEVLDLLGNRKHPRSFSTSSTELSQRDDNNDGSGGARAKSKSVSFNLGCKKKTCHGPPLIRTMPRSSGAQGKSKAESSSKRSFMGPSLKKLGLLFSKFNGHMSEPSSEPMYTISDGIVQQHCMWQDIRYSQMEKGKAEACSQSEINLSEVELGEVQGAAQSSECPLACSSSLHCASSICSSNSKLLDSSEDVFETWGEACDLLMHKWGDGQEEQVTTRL
Procedure: TRPC4, TRPC5, and TRPC6 inhibition assay: HEK293 whole-cell recordings Whole-cell patch clamp recording was performed 16 h after transfection. The bath solution contained (in mM): 140 NaCl, 5 KCl, 10 HEPES, 2 MgCl2, 2 CaCl2, 10 glucose with pH7.4 adjusted with NaOH. The intracellular solution contained (in mM): 140 KCl, 5 EGTA, 10 HEPES, 2 MgCl2 with pH7.4 adjusted with KOH. The patch pipettes were made using a two-step-protocol (P-97, Sutter Instrument). The pipette resistance was maintained between 4 to 8 MΩ. Once the whole-cell configuration was achieved, cells were clamped at a holding potential of −60 mV, and given a 50 ms ramp stimulation from −100 mV to +100 mV in every 5 s. All currents were filtered at 2 KHz (Axopatch 200B amplifier, Axon Instruments, Union City, Calif.) and digitized at 10 KHz for whole-cell recordings using Axon pCLAMP 10.4. Data were then analyzed using Clampfit 10.4 (Molecular Devices).
HEK293 cell culture and transfection: Transfection of HEK293 cells was carried out using Plus reagent (Invitrogen) and Lipofectamine (Invitrogen) according to standard protocols. For heterologous expression of TRP channels in HEK293 cells, 1 μg of TRPC5-GFP, TRPC6-GFP or TRPC4-GFP plasmids were used to transfect HEK293 cells in a 3.5 cm petri dish where cells were allowed to grow to 80% confluence. Electrophysiology was carried out after 16 h incubation.

caAT1R podocytes = assay: ROS assay in caAT1R expressing podocytes; type: cell-based, mouse; conditions: 30 μM ML204, 30 μM AC1903 or 50 μM NSC23677 for 36 hours
Procedure: Podocyte culture and viral transduction: Immortalized mouse podocytes were cultured as previously described (10, 11). Podocyte viral transduction was performed using lentivirus as previously described (10, 11). Briefly, lentivirus production was carried out in HEK293T cells at 60% confluence, and viral particles were collected two days after transfection and purified by centrifugation at 1,000 rcf for 5 min. Purified lentivirus was frozen at −80° C. until further use. Podocytes were transduced with lentivirus after 7 days of differentiation, and assays were performed 5 days after viral transduction.
For experiments in FIG. 4B/C, pCDNA3.1 AT1AR-Δ324 (rat AT1R NM_030985.4) containing HA tag (Plasmid #45635, Addgene) underwent site directed mutagenesis (Agilent) to generate the N111S substitution. For FIG. 4B, differentiated podocytes were transduced with the AT1A-N111S/Δ324 construct in six-well plates. Six days after viral transduction, cells were treated with either vehicle, 30 μM ML204, 30 μM AC1903 or 50 μM NSC23677 for 36 hours. Intracellular production of ROS was measured using a cell-permeable fluorescent dye, 5-(and-6)-chloromethyl-2′,7′-dichlorodihydrofluorescein diacetate, acetyl ester (CM-H2DCFDA, Molecular Probes). Cells were incubated with 5 μM CM-H2DCFDA at 37° C. for 45 min in Hanks' balanced salt solution (HBSS). Cells were then collected, resuspended in HBSS, stained with propidium iodide and the fluorescence intensity was assessed by flow cytometry using MACSQuant Analyzer (Miltenyi Biotec, Bergisch Gladbach, Germany). Living cells, which were PI negative, were selected by FACS gating and the fluorescence of CM-H2DCFDA was recorded on the FL-1 channel (525 nm). For FIG. 4C, differentiated podocytes were transduced with the AT1A-N111S/Δ324 construct in 96 well plates. Six days after transduction, the cells were treated with either vehicle, 30 μM ML204, 30 μM AC1903 or 50 μM NSC23677 for 36 hours. […]

Structure (SMILES) | block of riluzole-activated TRPC5 whole-cell current (TRPC5; 30 μM, HEK cells expressing TRPC5) | IC50 (TRPC5) [µM] | caAT1R-induced ROS generation (caAT1R podocytes)
c1ccc(Cn2c(NCc3ccco3)nc3ccccc32)cc1 [AC1903] | blocked | 14.7 | blocked caAT1R-induced ROS generation
Cc1cc(N2CCCCC2)nc2ccccc12 [ML204, reference compound] | – | 13.6 | blocked caAT1R-induced ROS generation
